Source: ChEMBL document CHEMBL1126961, “The design and synthesis of kappa opioid ligands based on a binding model for kappa agonists” (Bioorg Med Chem Lett, 1993)

What was measured:
[1] = molecular target: T1, Kappa-type opioid receptor (Homo sapiens, UniProt P41145); test: Tested in vitro for binding affinity against Opioid receptor kappa 1
[2] = molecular target: Mu-type opioid receptor (Homo sapiens, UniProt P35372); test: Tested in vitro for binding affinity against mu opioid receptor
[3] = molecular target: T1, Kappa-type opioid receptor; test: Ratio of binding affinity against kappa opioid receptor to binding affinity against mu opioid receptor

Mu-type opioid receptor, sequence (P35372 whole entry): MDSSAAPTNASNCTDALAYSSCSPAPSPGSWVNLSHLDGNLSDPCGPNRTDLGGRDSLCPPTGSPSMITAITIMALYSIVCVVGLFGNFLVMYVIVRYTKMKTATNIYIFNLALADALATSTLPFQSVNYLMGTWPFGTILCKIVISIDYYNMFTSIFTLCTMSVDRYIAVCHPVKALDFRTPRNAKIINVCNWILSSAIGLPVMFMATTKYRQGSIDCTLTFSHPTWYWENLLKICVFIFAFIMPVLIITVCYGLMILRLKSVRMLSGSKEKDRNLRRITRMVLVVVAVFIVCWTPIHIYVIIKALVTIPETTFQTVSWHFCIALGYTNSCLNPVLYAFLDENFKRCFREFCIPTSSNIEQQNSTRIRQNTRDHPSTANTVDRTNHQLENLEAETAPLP
T1 sequence (P41145 whole entry): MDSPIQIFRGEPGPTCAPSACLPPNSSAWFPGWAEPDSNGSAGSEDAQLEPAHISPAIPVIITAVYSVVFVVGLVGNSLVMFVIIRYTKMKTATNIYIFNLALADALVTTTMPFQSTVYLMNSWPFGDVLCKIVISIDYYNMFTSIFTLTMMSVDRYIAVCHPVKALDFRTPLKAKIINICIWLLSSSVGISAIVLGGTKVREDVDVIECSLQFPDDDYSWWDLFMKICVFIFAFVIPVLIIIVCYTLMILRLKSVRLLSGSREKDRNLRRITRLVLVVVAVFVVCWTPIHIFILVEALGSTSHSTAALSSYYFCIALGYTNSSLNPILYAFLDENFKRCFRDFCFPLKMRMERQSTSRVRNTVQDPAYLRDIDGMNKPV

Structure (SMILES) | Ki [1] [nM] | Ki [2] [nM] | Ratio [3]
O=C1Cc2cccc(c2)OCCCCNCCN1 | > 10000 | > 10000 | –
CN(C(=O)Cc1c(OCCN2CCCC2)ccc2ccccc12)C1CCCCC1 | 160 | > 10000 | > 60
O=C(Cc1cccc2occc12)NCC12CCCN1CCC2 | 940 | 3350 | 3.5
CC[C@]12CCN(CC3CC3)[C@H](C(=O)c3ccc(O)cc31)[C@@H]2C | – | 1.02 | –
